PubChem BioAssay AID493040 (Abbott Labs, 2011)
Calls of active or inactive are those of the source. No rule for the calls is given here.

Columns and labels:
Experiment in all cases: PubChem AID 493040
[1] = target: Serine/threonine-protein kinase PLK3 (Homo sapiens) (UniProt Q9H4B4); details: kinase panel binding, pKi
[2] = target: Serine/threonine-protein kinase Sgk2 (Homo sapiens) (UniProt Q9HBY8); details: kinase panel binding, pKi; SGK
[3] = target: Epidermal growth factor receptor (Homo sapiens) (UniProt P00533); details: kinase panel binding, pKi; EGFR
[4] = target: Rho-associated protein kinase 2 (Homo sapiens) (UniProt O75116); details: kinase panel binding, pKi; ROCK2
Sequence of Rho-associated protein kinase 2 (Homo sapiens) (O75116 whole entry, looked up): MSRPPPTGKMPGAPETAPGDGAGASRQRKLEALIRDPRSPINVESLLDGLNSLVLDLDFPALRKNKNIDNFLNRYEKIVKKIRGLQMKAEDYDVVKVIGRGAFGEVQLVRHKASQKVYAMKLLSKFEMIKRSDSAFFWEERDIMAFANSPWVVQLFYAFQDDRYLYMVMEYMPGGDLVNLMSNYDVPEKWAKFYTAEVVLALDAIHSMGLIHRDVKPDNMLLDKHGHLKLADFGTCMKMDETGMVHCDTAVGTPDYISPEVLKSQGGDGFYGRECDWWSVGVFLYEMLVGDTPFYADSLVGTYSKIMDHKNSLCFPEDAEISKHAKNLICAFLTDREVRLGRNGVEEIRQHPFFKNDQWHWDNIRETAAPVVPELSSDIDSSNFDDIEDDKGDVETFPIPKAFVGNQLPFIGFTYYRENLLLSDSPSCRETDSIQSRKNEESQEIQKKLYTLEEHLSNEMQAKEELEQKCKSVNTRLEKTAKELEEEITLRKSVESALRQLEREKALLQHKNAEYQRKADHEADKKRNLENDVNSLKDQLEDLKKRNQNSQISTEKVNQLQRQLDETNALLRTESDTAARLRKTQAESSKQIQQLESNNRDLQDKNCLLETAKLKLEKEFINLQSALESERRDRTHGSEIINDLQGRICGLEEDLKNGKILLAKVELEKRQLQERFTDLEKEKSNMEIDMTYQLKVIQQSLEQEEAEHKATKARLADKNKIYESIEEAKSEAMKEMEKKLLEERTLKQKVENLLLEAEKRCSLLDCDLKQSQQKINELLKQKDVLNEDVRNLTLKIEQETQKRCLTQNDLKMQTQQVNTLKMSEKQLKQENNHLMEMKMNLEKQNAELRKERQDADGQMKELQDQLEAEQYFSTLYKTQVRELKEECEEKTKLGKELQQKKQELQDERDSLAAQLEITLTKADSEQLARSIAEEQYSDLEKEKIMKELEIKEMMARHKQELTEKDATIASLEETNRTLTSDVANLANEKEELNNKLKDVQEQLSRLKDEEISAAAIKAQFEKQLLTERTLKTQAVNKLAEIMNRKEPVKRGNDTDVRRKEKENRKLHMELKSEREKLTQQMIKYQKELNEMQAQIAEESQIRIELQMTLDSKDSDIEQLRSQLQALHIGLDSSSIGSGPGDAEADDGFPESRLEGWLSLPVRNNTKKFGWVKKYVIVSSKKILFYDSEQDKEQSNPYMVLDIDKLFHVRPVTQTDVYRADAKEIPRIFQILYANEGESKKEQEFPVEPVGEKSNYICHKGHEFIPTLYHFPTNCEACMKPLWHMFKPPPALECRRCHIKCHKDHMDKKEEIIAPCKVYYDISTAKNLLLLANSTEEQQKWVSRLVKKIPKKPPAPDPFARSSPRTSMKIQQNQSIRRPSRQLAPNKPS

Sequence of Serine/threonine-protein kinase Sgk2 (Homo sapiens) (Q9HBY8 whole entry, looked up): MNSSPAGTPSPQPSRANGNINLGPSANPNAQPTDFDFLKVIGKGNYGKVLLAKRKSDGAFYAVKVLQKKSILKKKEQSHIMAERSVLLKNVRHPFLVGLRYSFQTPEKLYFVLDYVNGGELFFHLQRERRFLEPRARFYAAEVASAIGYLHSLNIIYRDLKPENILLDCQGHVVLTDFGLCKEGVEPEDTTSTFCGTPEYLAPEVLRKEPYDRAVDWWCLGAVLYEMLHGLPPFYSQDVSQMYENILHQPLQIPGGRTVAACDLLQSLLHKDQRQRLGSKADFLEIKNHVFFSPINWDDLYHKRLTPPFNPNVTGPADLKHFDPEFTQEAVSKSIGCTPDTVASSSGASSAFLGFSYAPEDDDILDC
Sequence of Serine/threonine-protein kinase PLK3 (Homo sapiens) (Q9H4B4 whole entry, looked up): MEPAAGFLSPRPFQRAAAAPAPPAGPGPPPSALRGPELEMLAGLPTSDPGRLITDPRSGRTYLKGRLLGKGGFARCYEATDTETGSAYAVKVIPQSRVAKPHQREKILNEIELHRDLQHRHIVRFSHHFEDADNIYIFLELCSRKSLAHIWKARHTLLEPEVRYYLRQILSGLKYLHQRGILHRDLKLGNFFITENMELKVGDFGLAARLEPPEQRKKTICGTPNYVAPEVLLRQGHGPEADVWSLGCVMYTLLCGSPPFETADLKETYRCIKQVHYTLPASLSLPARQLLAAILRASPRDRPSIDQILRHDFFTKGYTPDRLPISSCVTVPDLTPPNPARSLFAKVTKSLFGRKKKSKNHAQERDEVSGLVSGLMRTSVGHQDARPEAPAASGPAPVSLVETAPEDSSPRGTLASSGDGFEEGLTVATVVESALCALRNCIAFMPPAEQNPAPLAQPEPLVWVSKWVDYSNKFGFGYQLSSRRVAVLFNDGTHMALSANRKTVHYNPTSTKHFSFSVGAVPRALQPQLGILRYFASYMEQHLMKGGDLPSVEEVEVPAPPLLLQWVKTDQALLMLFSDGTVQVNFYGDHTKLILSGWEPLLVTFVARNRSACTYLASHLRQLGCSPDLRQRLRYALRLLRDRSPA
Sequence of Epidermal growth factor receptor (Homo sapiens) (P00533 whole entry, looked up): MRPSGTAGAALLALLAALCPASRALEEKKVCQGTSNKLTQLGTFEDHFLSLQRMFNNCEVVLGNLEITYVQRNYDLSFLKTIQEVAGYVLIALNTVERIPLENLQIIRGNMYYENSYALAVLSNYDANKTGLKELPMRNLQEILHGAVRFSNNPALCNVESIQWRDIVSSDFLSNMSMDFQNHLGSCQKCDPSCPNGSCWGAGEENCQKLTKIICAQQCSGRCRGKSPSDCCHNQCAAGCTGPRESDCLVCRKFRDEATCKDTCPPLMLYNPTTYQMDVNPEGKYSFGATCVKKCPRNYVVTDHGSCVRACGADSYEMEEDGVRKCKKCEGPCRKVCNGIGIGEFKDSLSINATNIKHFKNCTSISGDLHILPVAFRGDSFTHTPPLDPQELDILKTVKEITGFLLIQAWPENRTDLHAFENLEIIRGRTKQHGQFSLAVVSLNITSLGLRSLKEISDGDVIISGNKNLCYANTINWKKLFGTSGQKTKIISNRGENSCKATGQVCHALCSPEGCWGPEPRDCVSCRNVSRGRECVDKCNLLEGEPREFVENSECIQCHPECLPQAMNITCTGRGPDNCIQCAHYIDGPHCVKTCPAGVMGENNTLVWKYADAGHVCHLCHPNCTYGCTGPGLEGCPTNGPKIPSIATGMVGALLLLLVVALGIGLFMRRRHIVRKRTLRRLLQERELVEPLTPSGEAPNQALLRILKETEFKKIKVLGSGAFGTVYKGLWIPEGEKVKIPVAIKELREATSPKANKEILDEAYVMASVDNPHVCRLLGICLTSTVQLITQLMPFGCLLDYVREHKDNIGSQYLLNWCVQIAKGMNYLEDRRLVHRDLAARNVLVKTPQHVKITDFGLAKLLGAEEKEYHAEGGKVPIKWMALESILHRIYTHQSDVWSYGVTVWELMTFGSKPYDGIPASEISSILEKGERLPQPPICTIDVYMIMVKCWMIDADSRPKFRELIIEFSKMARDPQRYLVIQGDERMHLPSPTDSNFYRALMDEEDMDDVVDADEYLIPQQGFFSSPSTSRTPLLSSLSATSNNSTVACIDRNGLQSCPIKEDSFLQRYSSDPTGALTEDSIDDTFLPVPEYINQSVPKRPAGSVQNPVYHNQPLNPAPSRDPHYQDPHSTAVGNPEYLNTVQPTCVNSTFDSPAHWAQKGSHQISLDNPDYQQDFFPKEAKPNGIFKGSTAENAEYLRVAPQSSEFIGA

Ki [1]: 7.94 nM
Ki [2]: > 10000 nM (inactive)
Ki [3]: 251 nM
Ki [4]: > 7940 nM (inactive)
SMILES: COc1cc2ncn(-c3cc(OCc4ccccc4C(F)(F)F)c(C(N)=O)s3)c2cc1OC
